What all share (assay type): cell-based
The target in assay [1] is T1, 5-hydroxytryptamine receptor 2A (Homo sapiens, UniProt P28223). The assay is described as follows: Modulation of human 5HT2A expressed in HEK293T cells co-transfected with Galphaq-RLuc8, Ggamma1-GFP2 and Gbeta1 assessed as dissociation of Galphaq from Ggamma1 preincubated for 1 hr followed by addition of coelenterazine 400a substrate and measured after 15 mins by BRET assay relative to 5-HT. Conditions: filed as modulator, time 75.0 min; call rule not given here. For orientation: BRET reads energy transfer from a luciferase to a nearby fluorophore.

Assay [2] deals with T2, 5-hydroxytryptamine receptor 2B (Homo sapiens, UniProt P41595). Briefly: Modulation of human 5HT2B expressed in HEK293T cells co-transfected with Galphaq-RLuc8, Ggamma1-GFP2 and Gbeta1 assessed as dissociation of Galphaq from Ggamma1 preincubated for 1 hr followed by addition of coelenterazine 400a substrate and measured after 15 mins by BRET assay relative to 5-HT. The following applies: time 75.0 min.

In assay [3] the target is T2, 5-hydroxytryptamine receptor 2B. The assay is described as follows: Modulation of human 5HT2B expressed in HEK293T cells co-transfected with Galphaq-RLuc8, Ggamma1-GFP2 and Gbeta1 assessed as dissociation of Galphaq from Ggamma1 preincubated for 1 hr followed by addition of coelenterazine 400a substrate and measured after 15 mins by BRET assay.
In assay [4] the target is T3, 5-hydroxytryptamine receptor 2C (Homo sapiens, UniProt P28335).
T3 sequence (P28335 whole entry): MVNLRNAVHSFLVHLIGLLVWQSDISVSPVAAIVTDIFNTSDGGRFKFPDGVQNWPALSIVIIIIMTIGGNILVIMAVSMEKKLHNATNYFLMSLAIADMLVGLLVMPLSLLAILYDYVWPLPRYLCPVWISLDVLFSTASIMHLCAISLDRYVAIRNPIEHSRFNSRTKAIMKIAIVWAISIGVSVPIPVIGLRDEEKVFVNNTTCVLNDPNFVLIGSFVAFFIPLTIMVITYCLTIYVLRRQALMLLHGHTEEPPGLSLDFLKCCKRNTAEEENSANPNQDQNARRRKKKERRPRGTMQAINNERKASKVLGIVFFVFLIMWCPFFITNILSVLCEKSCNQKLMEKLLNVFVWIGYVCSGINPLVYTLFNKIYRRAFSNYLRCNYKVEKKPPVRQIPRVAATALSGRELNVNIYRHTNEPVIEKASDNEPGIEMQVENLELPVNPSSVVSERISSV
Briefly: Modulation of human 5HT2C expressed in HEK293T cells co-transfected with Galphaq-RLuc8, Ggamma1-GFP2 and Gbeta1 assessed as dissociation of Galphaq from Ggamma1 preincubated for 1 hr followed by addition of coelenterazine 400a substrate and measured after 15 mins by BRET assay.

The target in assay [5] is T1, 5-hydroxytryptamine receptor 2A. The assay is described as follows: Modulation of human 5HT2A expressed in HEK293T cells co-transfected with Galphaq-RLuc8, Ggamma1-GFP2 and Gbeta1 assessed as dissociation of Galphaq from Ggamma1 preincubated for 1 hr followed by addition of coelenterazine 400a substrate and measured after 15 mins by BRET assay.

T1 sequence (P28223 whole entry): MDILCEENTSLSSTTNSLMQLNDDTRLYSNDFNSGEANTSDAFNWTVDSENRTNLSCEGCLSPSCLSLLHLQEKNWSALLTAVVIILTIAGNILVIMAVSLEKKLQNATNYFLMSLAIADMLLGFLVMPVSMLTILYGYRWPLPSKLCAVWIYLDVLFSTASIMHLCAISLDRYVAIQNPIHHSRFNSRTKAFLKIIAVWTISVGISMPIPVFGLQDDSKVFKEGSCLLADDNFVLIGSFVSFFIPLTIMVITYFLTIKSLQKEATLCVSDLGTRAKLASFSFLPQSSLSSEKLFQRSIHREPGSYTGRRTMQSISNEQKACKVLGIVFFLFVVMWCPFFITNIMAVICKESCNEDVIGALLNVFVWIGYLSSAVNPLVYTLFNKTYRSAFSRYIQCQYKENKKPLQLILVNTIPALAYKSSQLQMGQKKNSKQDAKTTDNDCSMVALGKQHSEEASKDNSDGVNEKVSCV
T2 sequence (P41595 whole entry): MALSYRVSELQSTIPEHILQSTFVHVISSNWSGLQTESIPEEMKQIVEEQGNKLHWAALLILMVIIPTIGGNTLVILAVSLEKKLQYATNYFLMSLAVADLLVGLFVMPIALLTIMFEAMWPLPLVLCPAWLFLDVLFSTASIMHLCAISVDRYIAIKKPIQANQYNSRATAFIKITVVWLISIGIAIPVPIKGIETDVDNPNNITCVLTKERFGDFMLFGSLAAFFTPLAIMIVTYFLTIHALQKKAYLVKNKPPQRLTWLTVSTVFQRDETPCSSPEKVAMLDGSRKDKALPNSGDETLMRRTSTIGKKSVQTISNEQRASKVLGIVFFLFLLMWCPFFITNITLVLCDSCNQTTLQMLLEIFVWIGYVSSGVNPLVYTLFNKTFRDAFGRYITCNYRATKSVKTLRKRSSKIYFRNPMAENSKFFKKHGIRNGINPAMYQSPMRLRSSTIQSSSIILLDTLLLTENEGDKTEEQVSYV

With `CN(CCc1cn(C)c2cccc(O)c12)CC1CC1`, the Efficacy in assay [1] was 55%; in assay [2], 19%.

For `CCN(C)CCc1cn(C)c2cccc(O)c12`, the values for the Efficacy in assay [1] and in assay [2] (filed as modulator) were 66% and 44%, respectively.

For the molecule `CN(C)CCc1c[nH]c2cccc(O)c12`, the Efficacy came to 82% in assay [1] and 63% in assay [2] (filed as modulator).

Broadly, the IC50 is the concentration that gives 50% inhibition. Take `CN(C)CCc1cn(CC2CC2)c2cccc(O)c12`: the Efficacy in assay [1] amounted to 29%. Besides, the half-maximal inhibitory concentration (IC50) result in assay [3] (hek293t) was “Not Active”.

`CCn1cc(CCN(C)C)c2c(O)cccc21`: the Efficacy in assay [1] is 65%. Also, the IC50 is 0.9 nM in assay [4], “Not Active” in assay [3] (hek293t) and 196 nM in assay [5].

In the case of `CN(C)CCc1cn(CCF)c2cccc(O)c12`, the Efficacy in assay [1] was found to be 48%. Further, the figures for the IC50 in assay [4], in assay [3] (hek293t) and in assay [5] were 2.7 nM, “Not Active” and 188 nM, respectively.

As to `CC(C)N(C)CCc1cn(C)c2cccc(O)c12`, the Efficacy in assay [1] stood at 85%; in assay [2] (filed as modulator), 83%.

On to `CN(C)CCc1cn(C)c2cccc(O)c12`, for which the Efficacy in assay [1] was 73%; in assay [2] (filed as modulator) it was 40%. Besides, the results for the IC50 in assay [4], in assay [3] (read-out: IC50) and in assay [5] were 9.51 nM, 31.7 nM and 86.3 nM, respectively.

For the origin of these results see ChEMBL document CHEMBL5055687, “Improved 5-HT2 Selective Receptor Modulators for the Treatment of Psychological Disorders” (ACS Med Chem Lett, 2021).
